One data set addresses T1, hrCXCR2 (Homo sapiens, UniProt P25025).
T1 construct: expressed in transfected cells; host or cells: HEK 293 cells (ECACC No. 85120602), membranes of the highest expressing clone
T1 sequence (P25025 1-360): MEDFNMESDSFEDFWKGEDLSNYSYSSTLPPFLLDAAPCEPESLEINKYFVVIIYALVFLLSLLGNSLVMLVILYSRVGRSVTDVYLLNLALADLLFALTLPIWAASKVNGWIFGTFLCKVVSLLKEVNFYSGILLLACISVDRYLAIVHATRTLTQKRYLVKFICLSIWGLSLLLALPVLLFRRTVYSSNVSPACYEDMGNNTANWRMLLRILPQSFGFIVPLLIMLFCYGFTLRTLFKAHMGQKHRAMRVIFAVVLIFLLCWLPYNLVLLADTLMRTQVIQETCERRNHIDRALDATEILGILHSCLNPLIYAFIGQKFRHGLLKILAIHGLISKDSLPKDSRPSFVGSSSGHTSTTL
Kind of data set: Ligand binding assay ([125I]IL-8 displacement, HEK 293 membranes). Conditions: [125I]IL-8 binding to membranes of HEK 293 cells expressing hrCXCR2; 1.5 hours at room temperature. The source says: [^125I]IL-8 (human, recombinant) was purchased from Amersham, U.K. with a specific activity of 2,000 Ci/mmol. All other chemicals were of analytical grade. High levels of hrCXCR2 were expressed in HEK 293 cells (human embryo kidney 293 cells ECACC No. 85120602) (Lee et al. (1992) J. Biol. Chem. 267 pp 16283-16291). hrCXCR2 cDNA was amplified and cloned from human neutrophil mRNA. The DNA was cloned into PCRScript (Stratagene) and clones were identified using DNA. The coding sequence was sub-cloned into the eukaryotic expression vector RcCMV (Invitrogen). Plasmid DNA was prepared using Quiagen Megaprep 2500 and transfected into HEK 293 cells using Lipofectamine reagent (Ginbco BRL). Cells of the highest expressing clone were harvested in phosphate-buffered saline containing 0.2% (w/v) ethylenediaminetetraacetic acid (EDTA) and centrifuged (200 g, 5 min.). The cell pellet was resuspended in ice cold homogenisation buffer [[…] HEPES (pH 7.4), 1 mM dithiothreitol 1 mM EDTA and a panel of protease inhibitors (1 mM phenyl methyl sulphonyl fluoride, 2 μg/ml soybean trypsin inhibitor, 3 mM benzamidine, 0.5 μg/ml leupeptin and 100 μg/ml bacitracin)] and the cells left to swell for 10 minutes. […] The backing plate was removed from the MultiScreen plate assembly, the filters dried at room temperature, punched out and then counted on a Cobra γ-counter.

Data set [1] concerns the target T2, CXCR2 receptor in human neutrophils (Homo sapiens, UniProt P25025).
T2 construct: Human neutrophils were prepared from EDTA-treated peripheral blood; endogenous in cells; host or cells: human neutrophils from peripheral blood
T2 sequence (P25025 1-360): T1 sequence (P25025 1-360)
Kind of data set: Intracellular calcium mobilisation assay (GROα-stimulated, fluo-3, FLIPR). The class given is cell-based. Conditions: A50 concentration of GROα, fluo-3 fluorescence. How it is done:
Intracellular Calcium Mobilisation Assay
Human neutrophils were prepared from EDTA-treated peripheral blood, as previously described (Baly et al. (1997) Methods in Enzymology 287 pp70-72), in storage buffer [Tyrode's salt solution (137 mM NaCl 2.7 mM KCl, 0.4 mM NaH2PO4) supplemented with 5.7 mM glucose and 10 mM HEPES (pH 7.4)].
The chemokine GROα (human, recombinant) was purchased from R&D Systems (Abingdon, U.K.). All other chemicals were of analytical grade. Changes in intracellular free calcium were measured fluorometrically by loading neutrophils with the calcium sensitive fluorescent dye, fluo-3, as described previously (Merritt et al. (1990) Biochem. J. 269, pp513-519). Cells were loaded for 1 hour at 37° C. in loading buffer (storage buffer with 0.1% (w/v) gelatin) containing 5 μM fluo-3 AM ester, washed with loading buffer and then resuspended in Tyrode's salt solution supplemented with 5.7 mM glucose, 0.1% (w/v) bovine serum albumin (BSA), 1.8 mM CaCl2 and 1 mM MgCl2. […]
A compound of formula (1) according to the Examples was pre-dissolved in DMSO and added to a final concentration of 0.1% (v/v) DMSO. Assays were initiated by the addition of an A50 concentration of GROα and the transient increase in fluo-3 fluorescence (λEx=490 nm and λEm=520 nm) monitored using a FLIPR (Fluorometric Imaging Plate Reader, Molecular Devices, Sunnyvale, U.S.A).

Here are results for 1 compound from US20050272750A1, “Novel compound” (AstraZeneca AB, priority 2002, published 2005).

By IC50 is commonly meant the concentration at which inhibition is half-maximal. The low end stands for greater potency in that assay, the high end for weaker potency in that assay. One may read the melting point as the temperature, or range, at which the solid turns liquid.

`C[C@H](O)[C@H](CO)Nc1nc(SCc2cccc(F)c2F)nc2[nH]c(=O)sc12` [compound of formula (I), 5-[((2,3-difluorophenyl)methyl)thio]-7-{[(1S,2S)-2-hydroxy-1-(hydroxymethyl)propyl]amino}thiazolo[4,5-d]pyrimidin-2(3B)-one] gave a melting point of 202 to 204 °C. Besides, the 50% inhibitory concentration (IC50) on hrCXCR2 is under 10 µM. Moreover, in data set [1], the “antagonism of the CXCR2 receptor (GROα-induced intracellular calcium increase)” value is on record as “antagonist”.
